Consider one sequence from patent US12144851B2, “Vaccinal strategy” (INSERM (INSTITUT NATIONAL DE LA SANTÉ ET DE LA RECHERCHE …, priority 2018, dated 2024).

The test system of one test is SARC-A2-MELOE-1 cells. Kind of test: Anti-tumor vaccination with aSLP. In kind it is in vivo, A2/DR1 mice. The conditions noted are these: day 36, threshold 50 mm^2; prime 100 μg day 6 plus adjuvant, boost 14 days later; 0/7 in untreated, p=0.0513. The method, then:
The SARC-L1 cell line which spontaneously occurred in A2/DR1 mice was genetically modified to over-express HLA-A*0201 as previously described (Rangan et al Oncotarget, 2017). SARC-A2 cells were then transduced with a gammaretroviral dicistronic vector encoding the whole MELOE-1 antigen and, downstream of an IRES element, a puromycin N-acetyltransferase allowing selection of the transduced cells with puromycin (5 μg/mL). HLA-A*0201 expression was checked by flow cytometry. The capacity of the MELOE-1-transduced SARC-A2 (SARC-A2-MELOE-1) cells to present the A2-restricted MELOE-1 epitope was confirmed by their recognition by an HLA-A*0201-restricted T cell clone (data not shown).
A2/DR1 mice were subcutaneously injected with 2×10^5 SARC-A2-MELOE-1 cells in 100 μl in the right flank. The first vaccination with aSLP (100 μg in IFA, as above) or adjuvant alone or PBS started when tumor became detectable (around 10 mm2). […] Tumor growth was evaluated twice a week using a caliper and mice were euthanized when their tumor exceeded 300 mm^2. The efficiency of anti-tumor vaccination was evaluated by Fisher's exact test (α=0.5%).
To evaluate the anti-tumor potential of vaccination with aSLP, we used the previously described SARC-A2 cell line transduced with a cDNA encoding the whole MELOE-1 antigen. […] Mice were monitored until the end point at day 36. […]

Test [1] has as its system MELOE-1, HLA A*0201 restricted CD8 T cell clone.

Turning to “TSREQFLPSEGAACPPWLLSVGGTLNDECWPASL (Synthetic SLP) [SEQ ID NO: 87]”, the “mice in which tumor growth was inhibited” value in the test on SARC-A2-MELOE-1 cells is 4/8. Further, the “Fold change = EC50 (M) of MELOE-111-46/EC50 (M) SLP” value in test [1] (SLP MELOE-113-27 xxxx MELOE-136-44, TNF-a response of CD8 T cell clone to SLP-loaded DC, range over independent experiments) is reported as 12-56. Moreover, the “cross-presentation compared with full length MELOE-1 / native antigen (in words)” value in test [1] (full length MELOE-1 as reference) was “the most efficiently processed and cross-presented”.
